Consider 4 compounds from ChEMBL document CHEMBL3108744, “Heronamides D-F, polyketide macrolactams from the deep-sea-derived Streptomyces sp. SCSIO 03032” (J Nat Prod, 2014).

Assay [1] relates to Radical scavenging activity. The experiment in a line: Antioxidant activity of the compound assessed as DPPH radical scavenging activity after 30 mins by spectrophotometric analysis. The class given is functional. (The DPPH test is a chemical assay of radical scavenging.)
For the next assay, the system named is Candida albicans. The assay is described as follows: Antifungal activity against Candida albicans ATCC 10231 assessed as growth inhibition by broth microdilution method. The class given is functional. A general note: Dilution methods test growth across graded concentrations, often in twofold steps.
The next assay has as its system Bacillus subtilis. The assay is described as follows: Antibacterial activity against Bacillus subtilis SCSIO BS01 assessed as growth inhibition by broth microdilution method. The class given is functional.
The test system of a further assay is NCI-H460. The experiment in a line: Cytotoxicity against human NCI-H460 cells by SRB assay. The class given is functional, cell-based.
The test system of another assay is Bacillus thuringiensis. The experiment in a line: Antibacterial activity against Bacillus thuringiensis SCSIO BT01 assessed as growth inhibition by broth microdilution method. The class given is functional.
For a further assay, the system named is MCF7. The experiment in a line: Cytotoxicity against human MCF7 cells by SRB assay. The class given is functional, cell-based. On the technique in general: In SRB staining, fixed cells bind dye roughly in proportion to their protein.
Another assay relates to Staphylococcus aureus. The experiment in a line: Antibacterial activity against Staphylococcus aureus ATCC 29213 assessed as growth inhibition by broth microdilution method. The class given is functional.
A further assay deals with Escherichia coli. The experiment in a line: Antibacterial activity against Escherichia coli ATCC 25922 assessed as growth inhibition by broth microdilution method. The class given is functional.
In a further assay the test system is SF-268. The assay is described as follows: Cytotoxicity against human SF268 cells by SRB assay. The class given is functional, cell-based.
The subject of assay [2] is HUVEC. The experiment in a line: Antimigratory activity in HUVEC at 17.1 uM up to 72 hrs by scratch wound healing assay relative to DMSO-treated control. The class given is functional, cell-based. Particulars: Homo sapiens.
For assay [3], the system named is HUVEC. The experiment in a line: Antimigratory activity in HUVEC at 11.8 uM up to 72 hrs by scratch wound healing assay relative to DMSO-treated control. The settings on record: Homo sapiens. The class given is functional, cell-based.

The structures appear in SMILES notation. Activity calls are given as the source filed them.

For `C/C=C/C=C/C[C@@H]1C[C@@H]2/C=C/C(C)=C/[C@H]3C=C[C@@H](O)[C@@H](O)[C@@H]3/C(C)=C/C=C/[C@H]2C(=O)N1`, the outcome in assay [1] was inactive. The MIC with Candida albicans, in the assay with Bacillus subtilis, in the assay on Bacillus thuringiensis, in the assay with Staphylococcus aureus and in the assay with Escherichia coli was more than 128 µg/mL each time. For the same compound, the IC50 in the assay on NCI-H460, with MCF7 and in the assay on SF-268 was more than 100 µM each time.
Turning to `C/C=C/C=C/C[C@@H]1C/C=C/C=C(C)/C=C/C=C\[C@@H](OC(C)=O)[C@@H](OC(C)=O)/C=C(C)/C=C/C=C/C(=O)N1`, the MIC in the assay with Candida albicans, in the assay on Bacillus subtilis, in the assay on Bacillus thuringiensis, in the assay with Staphylococcus aureus and with Escherichia coli was more than 128 µg/mL in each case. In addition, the figures for the IC50 with NCI-H460, in the assay on MCF7 and in the assay with SF-268 were 56.4 µM, 15.4 µM and 23.3 µM, respectively.
Turning to `C/C=C/C=C/C[C@@H]1C[C@H](O)[C@H]2[C@@H]3/C(C)=C/[C@H]4C=C[C@@H](O)[C@@H](O)[C@@H]4/C(C)=C/C=C\[C@@H]3C(=O)N12`, the result (in assay [1]; in the assay on HUVEC [2]) was inactive. The MIC in the assay with Candida albicans, in the assay on Bacillus subtilis, in the assay with Bacillus thuringiensis, with Staphylococcus aureus and in the assay on Escherichia coli was more than 128 µg/mL in each case. Besides, the 50% inhibitory concentration (IC50) in the assay on NCI-H460, in the assay with MCF7 and with SF-268 was more than 100 µM in each case.
In the case of `C/C=C/C=C/C[C@@H]1C/C=C/C=C(C)/C=C/C=C\[C@@H](O)[C@@H](O)/C=C(C)/C=C/C=C/C(=O)N1`, the outcome (in assay [1]; in the assay with HUVEC [3]) was inactive. Moreover, the MIC in the assay with Candida albicans, with Bacillus subtilis, in the assay with Bacillus thuringiensis, in the assay with Staphylococcus aureus and with Escherichia coli was more than 128 µg/mL throughout. The half-inhibitory concentration (IC50) with NCI-H460, in the assay with MCF7 and in the assay with SF-268 was more than 100 µM each time.

Broadly, the MIC is the smallest concentration in the dilution series that meets the test's criterion for growth inhibition. Usually IC50 stands for the point on the concentration scale where inhibition reaches its midpoint. Low readings indicate inhibition by little substance, high ones a need for much substance.
